How the values were obtained:
hCES2 = molecular target: T1, hCES2 (Homo sapiens, UniProt O00748); experiment: Initial activity screening with recombinant hCES2; details: 100 µM substrate, 30 min, 37 °C, 0.2 µg/µL protein, LC–ITMS
T1 sequence (O00748 27-559): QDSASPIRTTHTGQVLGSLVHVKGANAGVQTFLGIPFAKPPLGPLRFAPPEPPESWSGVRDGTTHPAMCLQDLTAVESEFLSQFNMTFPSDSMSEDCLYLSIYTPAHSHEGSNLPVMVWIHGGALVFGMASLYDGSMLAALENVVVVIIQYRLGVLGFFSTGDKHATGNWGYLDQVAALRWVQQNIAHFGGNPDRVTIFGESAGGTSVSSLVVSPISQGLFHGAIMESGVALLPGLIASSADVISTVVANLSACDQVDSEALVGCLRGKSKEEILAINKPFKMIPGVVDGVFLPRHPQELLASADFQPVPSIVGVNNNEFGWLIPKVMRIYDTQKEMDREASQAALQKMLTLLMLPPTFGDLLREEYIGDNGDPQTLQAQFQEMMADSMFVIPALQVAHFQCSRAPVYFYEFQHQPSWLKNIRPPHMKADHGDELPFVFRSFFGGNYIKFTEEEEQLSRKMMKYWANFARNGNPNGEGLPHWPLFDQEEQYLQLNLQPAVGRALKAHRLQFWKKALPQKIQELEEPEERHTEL

hCES1b [1] = molecular target: T2, hCES1b (Homo sapiens, UniProt P23141); experiment: Initial activity screening with recombinant hCES1b; details: 100 µM substrate, 30 min, 37 °C, 0.2 µg/µL protein, LC–ITMS; for Relative amount of hydrolysis metabolite formed, hCES1b: mean n = 2
T2 sequence (P23141 18-567): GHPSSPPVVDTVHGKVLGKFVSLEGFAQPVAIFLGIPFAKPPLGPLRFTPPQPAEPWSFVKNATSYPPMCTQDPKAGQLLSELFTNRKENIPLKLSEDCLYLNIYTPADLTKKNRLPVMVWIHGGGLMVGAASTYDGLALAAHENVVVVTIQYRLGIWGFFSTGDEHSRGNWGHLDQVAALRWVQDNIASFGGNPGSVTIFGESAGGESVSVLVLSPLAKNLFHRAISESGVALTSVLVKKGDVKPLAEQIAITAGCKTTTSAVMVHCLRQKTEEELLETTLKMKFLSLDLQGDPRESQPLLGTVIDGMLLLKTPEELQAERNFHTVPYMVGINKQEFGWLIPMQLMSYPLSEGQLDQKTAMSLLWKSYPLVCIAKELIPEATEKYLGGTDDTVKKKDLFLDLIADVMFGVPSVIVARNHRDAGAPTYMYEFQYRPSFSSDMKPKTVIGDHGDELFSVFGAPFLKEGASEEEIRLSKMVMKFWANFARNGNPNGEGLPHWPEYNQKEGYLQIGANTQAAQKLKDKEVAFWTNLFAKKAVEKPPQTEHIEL

hCES1c [2] = molecular target: T3, hCES1c (Homo sapiens, UniProt P23141); experiment: Initial activity screening with recombinant hCES1c; details: 100 µM substrate, 30 min, 37 °C, 0.2 µg/µL protein, LC–ITMS; for Relative amount of hydrolysis metabolite formed, hCES1c: mean n = 2
T3 sequence (P23141 18-566 isoform P23141-3 limits assumed): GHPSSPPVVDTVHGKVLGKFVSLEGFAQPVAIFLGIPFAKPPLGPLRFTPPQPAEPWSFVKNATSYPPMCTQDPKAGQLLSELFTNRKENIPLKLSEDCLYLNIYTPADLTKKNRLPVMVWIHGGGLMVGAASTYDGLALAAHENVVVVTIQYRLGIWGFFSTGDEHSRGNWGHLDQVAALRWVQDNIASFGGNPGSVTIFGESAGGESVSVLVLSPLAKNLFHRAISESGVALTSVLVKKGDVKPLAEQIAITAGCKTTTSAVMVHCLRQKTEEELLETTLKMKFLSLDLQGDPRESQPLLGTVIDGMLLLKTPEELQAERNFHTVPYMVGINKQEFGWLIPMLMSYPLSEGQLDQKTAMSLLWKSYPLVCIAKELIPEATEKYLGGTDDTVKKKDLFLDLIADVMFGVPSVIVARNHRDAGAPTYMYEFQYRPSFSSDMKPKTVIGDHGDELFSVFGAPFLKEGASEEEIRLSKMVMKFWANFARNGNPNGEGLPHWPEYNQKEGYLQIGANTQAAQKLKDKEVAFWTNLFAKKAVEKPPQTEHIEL

hCES1b [3] = molecular target: T2, hCES1b; experiment: Enzyme kinetic studies of ester hydrolysis with hCES1b
hCES1c [4] = molecular target: T3, hCES1c; experiment: Enzyme kinetic studies of ester hydrolysis with hCES1c
[5] = Initial activity screening with pooled human liver microsomes; details: 100 µM substrate, 30 min, 37 °C, 2 µg/µL protein, LC–ITMS, mean n = 2
[6] = Initial activity screening with pooled human liver S9 fraction; details: 100 µM substrate, 30 min, 37 °C, 2 µg/µL protein, LC–ITMS, mean n = 2
not read [7] = substrate: COC(=O)C(Cc1ccccc1)NC(=O)c1cn(CCCCCF)c2ccccc12; experiment: not read; details: other: ± S.D.; Michaelis–Menten fit, conditions of Table 1; pH 7.4
not read [8] = substrate: C=CCCCn1cc(C(=O)N[C@H](C(=O)OC)C(C)C)c2ccccc21; experiment: not read; details: other: ± S.D.; Michaelis–Menten fit, conditions of Table 1; pH 7.4
[9] = ± S.D., peak area ratio metabolite/internal standard

N-[(2S)-1-amino-3,3-dimethyl-1-oxobutan-2-yl]-1-[(4-fluorophenyl)methyl]-1H-indazole-3-carboxamide [MMB-FUBINACA]
Hydrolysis of carboxamide linker, hCES2 (hCES2): −
Hydrolysis of carboxamide/ester in head group, hCES2 (hCES2): +
Relative amount of hydrolysis metabolite formed, hCES2 (hCES2; mean n = 2): 3.2%
Hydrolysis of carboxamide linker, hCES1b (hCES1b [1]): −
Hydrolysis of carboxamide/ester in head group, hCES1b (hCES1b [1]): +
Relative amount of hydrolysis metabolite formed, hCES1b (hCES1b [1]): 78%
Hydrolysis of carboxamide linker, hCES1c (hCES1c [2]): −
Hydrolysis of carboxamide/ester in head group, hCES1c (hCES1c [2]): +
Relative amount of hydrolysis metabolite formed, hCES1c (hCES1c [2]): 87%
Clint (relative in vitro intrinsic clearance), hCES1b (hCES1b [3]; Clint = Vmax/Km): 1.7 AU/min/mg/µM
Km (hCES1b [3]; read-out: Km, ester hydrolysis by hCES1b, ± S.D., Michaelis–Menten fit, conditions of Table 1): 40.8 ± 15 µM
Vmax (relative), ester hydrolysis by hCES1b (hCES1b [3]; [9]): 70.3 ± 7.6 AU/min/mg
Clint (relative in vitro intrinsic clearance), hCES1c (hCES1c [4]; Clint = Vmax/Km): 1.2 AU/min/mg/µM
Km (hCES1c [4]; read-out: Km, ester hydrolysis by hCES1c, ± S.D., Michaelis–Menten fit, conditions of Table 1): 25.7 ± 3.5 µM
Vmax (relative), ester hydrolysis by hCES1c (hCES1c [4]; [9]): 30.7 ± 0.96 AU/min/mg
Relative amount of hydrolysis metabolite formed, pHLM [5]: complete transformation
Relative amount of hydrolysis metabolite formed, pHLS9 [6]: complete transformation

C=CCCCn1nc(C(=O)N[C@H](C(=O)OC)C(C)(C)C)c2ccccc21 [MDMB-4en-PINACA, methyl (2S)-3,3-dimethyl-2-[(1-pent-4-enylindazole-3-carbonyl)amino]butanoate]
Hydrolysis of carboxamide linker, hCES2 (hCES2): −
Hydrolysis of carboxamide linker, hCES1b (hCES1b [1]): −
Hydrolysis of carboxamide/ester in head group, hCES1b (hCES1b [1]): +
Relative amount of hydrolysis metabolite formed, hCES1b (hCES1b [1]): below 1%
Hydrolysis of carboxamide linker, hCES1c (hCES1c [2]): −
Hydrolysis of carboxamide/ester in head group, hCES1c (hCES1c [2]): +
Relative amount of hydrolysis metabolite formed, hCES1c (hCES1c [2]): below 1%
Relative amount of hydrolysis metabolite formed, pHLM [5]: around 1%
Relative amount of hydrolysis metabolite formed, pHLS9 [6]: around 1%

COC(=O)[C@@H](NC(=O)c1cn(Cc2ccc(F)cc2)c2ccccc12)C(C)(C)C [MDMB-FUBICA, methyl (2S)-2-({1-[(4-fluorophenyl)methyl]-1H-indole-3-carbonyl}amino)-3,3-dimethylbutanoate]
Hydrolysis of carboxamide linker, hCES2 (hCES2): −
Hydrolysis of carboxamide linker, hCES1b (hCES1b [1]): −
Hydrolysis of carboxamide/ester in head group, hCES1b (hCES1b [1]): −
Hydrolysis of carboxamide linker, hCES1c (hCES1c [2]): −
Hydrolysis of carboxamide/ester in head group, hCES1c (hCES1c [2]): +
Relative amount of hydrolysis metabolite formed, hCES1c (hCES1c [2]): below 1%
Relative amount of hydrolysis metabolite formed, pHLM [5]: around 1%
Relative amount of hydrolysis metabolite formed, pHLS9 [6]: around 1%

B1: hCES1b (Homo sapiens) (protein)
chain: T2 sequence (P23141 18-567)
Km (not read [7]): 88.9 ± 18 µM

B2: hCES1c (Homo sapiens) (protein)
chain: T3 sequence (P23141 18-566 isoform P23141-3 limits assumed)
Km (not read [8]): 203 ± 43 µM
Km (not read [7]): 23.2 ± 4.1 µM
